Assay results published in ChEMBL document CHEMBL1155393, “Rational design of potent GSK3beta inhibitors with selectivity for Cdk1 and Cdk2” (Bioorg Med Chem Lett, 2010).

biological target: Glycogen synthase kinase-3 beta (Homo sapiens, UniProt P49841); test: Inhibition of human recombinant GSK3-beta using gamma[33P]-ATP after 30 mins by scintillation proximity assay
Sequence (P49841 whole entry): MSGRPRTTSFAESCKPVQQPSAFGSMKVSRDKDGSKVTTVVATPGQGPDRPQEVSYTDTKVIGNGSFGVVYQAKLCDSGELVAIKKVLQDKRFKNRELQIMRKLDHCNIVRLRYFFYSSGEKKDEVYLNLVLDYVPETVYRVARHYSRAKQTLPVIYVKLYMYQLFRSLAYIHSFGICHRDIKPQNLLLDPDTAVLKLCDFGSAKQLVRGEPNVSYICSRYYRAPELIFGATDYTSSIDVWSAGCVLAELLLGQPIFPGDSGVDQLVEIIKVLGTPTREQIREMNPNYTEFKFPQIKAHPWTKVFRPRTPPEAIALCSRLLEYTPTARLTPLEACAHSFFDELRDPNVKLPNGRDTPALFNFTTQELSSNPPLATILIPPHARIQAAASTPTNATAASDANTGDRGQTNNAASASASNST

Compound	IC50 [nM]
Cc1ccc(-c2ccc3c(NC(=O)CCC(=O)O)n[nH]c3c2)cc1	17100
CCCC(=O)Nc1n[nH]c2cc(Cl)c(-c3ccc(OCc4ccccc4)cc3)cc12	23
CCCC(=O)Nc1n[nH]c2cc(Cl)c(-c3ccc(O)cc3)cc12	10
CCCC(=O)Nc1n[nH]c2cc(-c3ccc(C(C)(C)C)cc3)ccc12	3810
CCCC(=O)Nc1n[nH]c2cc(CCc3ccccc3)ccc12	8530
CCCC(=O)Nc1n[nH]c2cc(-c3ccccc3)c(-c3ccccc3)cc12	1720
CCCC(=O)Nc1n[nH]c2cc(-c3ccc(OCc4ccccc4)cc3)ccc12	1180
CCCC(=O)Nc1n[nH]c2cc(Br)ccc12	198
CCCC(=O)Nc1n[nH]c2c(F)c(Cl)c(-c3ccccc3)cc12	6
CCCC(=O)Nc1n[nH]c2cc(Cc3ccccc3)ccc12	4140
CCCC(=O)Nc1n[nH]c2cc(-c3cc(F)cc(F)c3)ccc12	2890
CCCC(=O)Nc1n[nH]c2cc(-c3ccc(SC)cc3)ccc12	7160
CCCC(=O)Nc1n[nH]c2cc(-c3ccncc3)ccc12	661
CCCC(=O)Nc1n[nH]c2cc(-c3ccsc3)ccc12	935
CCCC(=O)Nc1n[nH]c2cc(-c3cc(Cl)cc(Cl)c3)ccc12	5410
O=C(O)CCC(=O)Nc1n[nH]c2cc(Cl)ccc12	1180
CCCC(=O)Nc1n[nH]c2cc(-c3cccc(O)c3)ccc12	94
CCCC(=O)Nc1n[nH]c2cc(-c3ccccc3)ccc12	1280
CCCC(=O)Nc1n[nH]c2cc(-c3ccc4c(c3)COO4)ccc12	25000

Compound	IC50 [nM]
CCCC(=O)Nc1n[nH]c2cc(-c3ccc(OC(F)(F)F)cc3)ccc12	5500
CCCC(=O)Nc1n[nH]c2cc(-c3ccc(N(C)C)cc3)ccc12	12200
CCCC(=O)Nc1n[nH]c2cc(Cl)c(-c3ccc(F)cc3)cc12	22
CCCC(=O)Nc1n[nH]c2cc(Cl)c(-c3ccc(N)cc3)cc12	8
CCCC(=O)Nc1n[nH]c2cc(-c3ccc(N)cc3)ccc12	76
CCCC(=O)Nc1n[nH]c2cc(Cl)c(-c3ccc([N+](=O)[O-])cc3)cc12	18
CCCC(=O)Nc1n[nH]c2cc(-c3ccc(O)cc3)c(-c3ccccc3)cc12	55
CCCC(=O)Nc1n[nH]c2c(Cl)c(Cl)c(-c3ccccc3)cc12	12
CCCC(=O)Nc1n[nH]c2cc(-c3ccc(O)c(O)c3)ccc12	27
CCCC(=O)Nc1n[nH]c2cc(-c3ccc(Cl)cc3)ccc12	> 100000
CCCC(=O)Nc1n[nH]c2cc(-c3ccccc3Cl)ccc12	1350
CCCC(=O)Nc1n[nH]c2cc(Cl)c(-c3ccccc3)cc12	7
CCCC(=O)Nc1n[nH]c2cc(-c3ccc(OC)cc3)ccc12	> 100000
CCCC(=O)Nc1n[nH]c2cc(-c3ccc(O)cc3)c(-c3ccco3)cc12	14
CCCC(=O)Nc1n[nH]c2cc(Cl)c(-c3ccoc3)cc12	11
CCCC(=O)Nc1n[nH]c2cc(-c3ccc(N)nc3)ccc12	1090
CCCC(=O)Nc1n[nH]c2cc(-c3ccc(F)cc3)ccc12	5010
CCCC(=O)Nc1n[nH]c2cc(-c3ccc(O)cc3)c(Br)cc12	5
CCCC(=O)Nc1n[nH]c2cc(-c3ccc(O)cc3)ccc12	44

Compound	IC50 [nM]
CCCC(=O)Nc1n[nH]c2cc(-c3ccc(Oc4ccccc4)cc3)c(-c3ccc(Oc4ccccc4)cc3)cc12	> 10000
CCCC(=O)Nc1n[nH]c2cc(-c3ccc(O)cc3)c(-c3ccc(O)cc3)cc12	56
CCCC(=O)Nc1n[nH]c2cc(Cl)ccc12	354
N#Cc1ccc(-c2ccc3c(NC(=O)CCC(=O)O)n[nH]c3c2)cc1	20500
CCCC(=O)Nc1n[nH]c2cc(-c3ccc(CC)cc3)ccc12	> 100000
CCCC(=O)Nc1n[nH]c2cc(-c3ccoc3)ccc12	260
C/C=C/c1ccc2c(NC(=O)CCC)n[nH]c2c1	2460
CCCC(=O)Nc1n[nH]c2cc(-c3ccc(O)cc3Cl)ccc12	55
CCCC(=O)Nc1n[nH]c2cc(-c3ccc(C(F)(F)F)cc3)ccc12	10500
CCCC(=O)Nc1n[nH]c2cc(Cl)c(-c3ccncc3)cc12	50
CCCC(=O)Nc1n[nH]c2cc(Cl)c(-c3ccc(CC)cc3)cc12	12
CCCC(=O)Nc1n[nH]c2cc(-c3ccc(O)nc3)ccc12	16800
CCCC(=O)Nc1n[nH]c2cc(Cl)c(-c3ccc(C)cc3)cc12	14
CCCC(=O)Nc1n[nH]c2cc(-c3ccc(O)cc3)c(-c3cccnc3)cc12	149
CCCC(=O)Nc1n[nH]c2cc(-c3ccc(O)cc3)c(-c3ccc(CC)cc3)cc12	49
CCCC(=O)Nc1n[nH]c2cc(-c3ccc(O)cc3)c(-c3ccoc3)cc12	98
CCCC(=O)Nc1n[nH]c2cc(-c3ccc([N+](=O)[O-])cc3)ccc12	> 100000
CCCC(=O)Nc1n[nH]c2cc(C(F)(F)F)ccc12	195

biological target: Microtubule-associated protein tau (Rattus norvegicus, UniProt P19332); test: Inhibition of Tau phosphorylation in rat cerebral cortex after 120 mins by chemiluminescence assay; type: tissue-based
Sequence (P19332 whole entry): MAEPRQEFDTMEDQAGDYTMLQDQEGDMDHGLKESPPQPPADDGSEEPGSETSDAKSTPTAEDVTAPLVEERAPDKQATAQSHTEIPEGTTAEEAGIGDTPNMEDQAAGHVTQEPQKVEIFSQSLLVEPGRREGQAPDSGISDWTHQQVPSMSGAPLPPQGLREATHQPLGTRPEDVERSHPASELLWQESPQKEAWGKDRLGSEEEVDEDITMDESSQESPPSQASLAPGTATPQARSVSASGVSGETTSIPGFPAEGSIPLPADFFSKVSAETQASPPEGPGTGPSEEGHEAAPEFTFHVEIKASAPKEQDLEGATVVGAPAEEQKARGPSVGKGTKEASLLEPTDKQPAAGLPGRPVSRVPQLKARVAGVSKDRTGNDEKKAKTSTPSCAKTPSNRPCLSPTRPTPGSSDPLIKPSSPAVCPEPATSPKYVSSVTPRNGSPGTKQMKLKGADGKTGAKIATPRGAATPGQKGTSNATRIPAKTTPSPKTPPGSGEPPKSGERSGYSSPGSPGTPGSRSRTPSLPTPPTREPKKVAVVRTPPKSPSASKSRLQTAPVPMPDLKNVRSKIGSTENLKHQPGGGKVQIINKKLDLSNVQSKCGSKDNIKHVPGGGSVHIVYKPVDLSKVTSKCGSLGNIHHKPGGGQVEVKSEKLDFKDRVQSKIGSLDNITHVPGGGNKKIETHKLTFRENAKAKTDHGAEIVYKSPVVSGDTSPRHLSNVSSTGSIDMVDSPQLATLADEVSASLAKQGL

Compound	IC50 [nM]
CCCC(=O)Nc1n[nH]c2c(F)c(Cl)c(-c3ccccc3)cc12	250
CCCC(=O)Nc1n[nH]c2cc(Cl)c(-c3ccccc3)cc12	400

biological target: Cyclin-dependent kinase 2 (Homo sapiens, UniProt P24941); test: not given

Compound	IC50 [nM]
CCCC(=O)Nc1n[nH]c2c(F)c(Cl)c(-c3ccccc3)cc12	3160
CCCC(=O)Nc1n[nH]c2c(Cl)c(Cl)c(-c3ccccc3)cc12	> 10000

biological target: Aurora kinase A (Homo sapiens) (UniProt O14965); test: Inhibition of Aurora kinase 2
Sequence (O14965 whole entry, looked up): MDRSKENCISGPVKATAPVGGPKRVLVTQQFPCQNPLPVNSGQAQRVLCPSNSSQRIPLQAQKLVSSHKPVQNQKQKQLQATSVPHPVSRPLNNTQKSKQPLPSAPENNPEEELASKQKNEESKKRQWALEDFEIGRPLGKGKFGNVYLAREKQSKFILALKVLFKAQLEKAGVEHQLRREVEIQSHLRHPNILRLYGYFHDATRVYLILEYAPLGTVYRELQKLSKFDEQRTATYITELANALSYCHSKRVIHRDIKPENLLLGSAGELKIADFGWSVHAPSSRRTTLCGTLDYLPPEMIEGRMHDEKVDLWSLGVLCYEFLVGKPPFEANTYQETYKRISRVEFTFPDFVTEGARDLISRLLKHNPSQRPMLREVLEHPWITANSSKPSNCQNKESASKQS

Compound	IC50 [nM]
CCCC(=O)Nc1n[nH]c2cc(-c3ccc(O)cc3)ccc12	> 30000

biological target: Cyclin-dependent kinase 1 (Homo sapiens, UniProt P06493); test: Inhibition of Cdk1
Sequence (P06493 whole entry): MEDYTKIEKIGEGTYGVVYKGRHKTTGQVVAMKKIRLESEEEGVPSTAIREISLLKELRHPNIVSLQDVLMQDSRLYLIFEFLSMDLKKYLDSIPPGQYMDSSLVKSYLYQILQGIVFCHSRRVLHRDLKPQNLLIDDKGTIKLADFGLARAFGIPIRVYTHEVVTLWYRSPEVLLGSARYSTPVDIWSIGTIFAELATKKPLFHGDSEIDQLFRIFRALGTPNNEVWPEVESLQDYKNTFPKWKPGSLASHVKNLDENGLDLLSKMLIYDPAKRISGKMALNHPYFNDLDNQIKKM

Compound	IC50 [nM]
CCCC(=O)Nc1n[nH]c2c(F)c(Cl)c(-c3ccccc3)cc12	2500
CCCC(=O)Nc1n[nH]c2cc(Cl)c(-c3ccccc3)cc12	100
